# From ChEMBL document CHEMBL5442219
# How the values were obtained:
# Conditions in all cases: Compound concentration 10 µM
# [1] = molecular target: T1, Alpha-1A adrenergic receptor (Homo sapiens) (UniProt P35348)
# T1 sequence (whole entry): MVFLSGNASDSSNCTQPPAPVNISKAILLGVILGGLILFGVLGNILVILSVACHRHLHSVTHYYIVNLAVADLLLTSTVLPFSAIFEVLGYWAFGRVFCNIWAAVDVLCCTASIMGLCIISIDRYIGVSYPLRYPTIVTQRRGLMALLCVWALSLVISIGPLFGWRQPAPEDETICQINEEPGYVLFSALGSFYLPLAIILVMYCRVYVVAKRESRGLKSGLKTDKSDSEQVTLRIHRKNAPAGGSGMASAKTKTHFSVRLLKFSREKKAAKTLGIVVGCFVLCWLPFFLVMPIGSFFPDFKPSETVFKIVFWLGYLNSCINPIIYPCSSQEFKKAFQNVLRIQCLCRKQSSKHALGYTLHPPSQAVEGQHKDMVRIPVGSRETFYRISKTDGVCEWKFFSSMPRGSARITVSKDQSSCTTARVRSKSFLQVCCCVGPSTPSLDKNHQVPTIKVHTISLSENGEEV
# Description: PDSP Primary Binding target: ADRA1A - Compounds are tested at 10 uM concentration, plate are incubated at room temperature in the dark for 90 minutes. Reaction are stopped by vacuum filtration onto 0.3% polyethyleneimine soaked filter mats using Filtermate harvester. Scintilation cocktail is then melted onto microwave-dried filters on a hot plate and the radio activity is counted in Microbia counter.
# [2] = molecular target: T2, Alpha-2C adrenergic receptor (Homo sapiens) (UniProt P18825)
# T2 sequence (whole entry): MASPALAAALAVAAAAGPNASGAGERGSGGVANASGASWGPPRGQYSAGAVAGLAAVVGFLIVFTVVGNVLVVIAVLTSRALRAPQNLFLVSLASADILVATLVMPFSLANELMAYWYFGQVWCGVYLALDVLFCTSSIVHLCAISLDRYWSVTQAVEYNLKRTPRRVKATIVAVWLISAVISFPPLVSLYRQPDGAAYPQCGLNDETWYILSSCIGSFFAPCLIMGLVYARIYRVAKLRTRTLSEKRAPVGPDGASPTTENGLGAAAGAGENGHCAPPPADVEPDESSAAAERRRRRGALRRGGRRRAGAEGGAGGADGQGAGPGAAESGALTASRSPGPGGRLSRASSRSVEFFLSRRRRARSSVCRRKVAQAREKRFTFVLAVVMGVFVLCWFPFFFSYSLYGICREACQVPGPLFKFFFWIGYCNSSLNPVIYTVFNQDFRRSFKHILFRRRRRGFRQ
# Description: PDSP Primary Binding target: ADRA2C - Compounds are tested at 10 uM concentration, plate are incubated at room temperature in the dark for 90 minutes. Reaction are stopped by vacuum filtration onto 0.3% polyethyleneimine soaked filter mats using Filtermate harvester. Scintilation cocktail is then melted onto microwave-dried filters on a hot plate and the radio activity is counted in Microbia counter.
# [3] = molecular target: T3, Muscarinic acetylcholine receptor M2 (Homo sapiens) (UniProt P08172)
# T3 sequence (whole entry): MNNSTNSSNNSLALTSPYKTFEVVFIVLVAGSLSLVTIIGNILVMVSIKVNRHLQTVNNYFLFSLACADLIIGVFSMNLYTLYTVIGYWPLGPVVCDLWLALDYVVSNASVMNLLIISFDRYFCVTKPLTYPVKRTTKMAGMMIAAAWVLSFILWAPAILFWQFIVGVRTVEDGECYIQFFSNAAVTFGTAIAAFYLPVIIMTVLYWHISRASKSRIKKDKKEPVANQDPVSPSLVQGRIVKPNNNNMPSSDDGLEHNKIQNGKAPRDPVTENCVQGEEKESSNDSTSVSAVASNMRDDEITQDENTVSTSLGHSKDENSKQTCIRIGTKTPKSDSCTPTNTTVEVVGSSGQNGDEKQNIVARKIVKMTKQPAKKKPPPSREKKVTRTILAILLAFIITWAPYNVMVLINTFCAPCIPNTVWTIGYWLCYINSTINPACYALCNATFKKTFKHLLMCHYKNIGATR
# Description: PDSP Primary Binding target: CHRM2 - Compounds are tested at 10 uM concentration, plate are incubated at room temperature in the dark for 90 minutes. Reaction are stopped by vacuum filtration onto 0.3% polyethyleneimine soaked filter mats using Filtermate harvester. Scintilation cocktail is then melted onto microwave-dried filters on a hot plate and the radio activity is counted in Microbia counter.
# [4] = molecular target: T4, Muscarinic acetylcholine receptor M5 (Homo sapiens) (UniProt P08912)
# T4 sequence (whole entry): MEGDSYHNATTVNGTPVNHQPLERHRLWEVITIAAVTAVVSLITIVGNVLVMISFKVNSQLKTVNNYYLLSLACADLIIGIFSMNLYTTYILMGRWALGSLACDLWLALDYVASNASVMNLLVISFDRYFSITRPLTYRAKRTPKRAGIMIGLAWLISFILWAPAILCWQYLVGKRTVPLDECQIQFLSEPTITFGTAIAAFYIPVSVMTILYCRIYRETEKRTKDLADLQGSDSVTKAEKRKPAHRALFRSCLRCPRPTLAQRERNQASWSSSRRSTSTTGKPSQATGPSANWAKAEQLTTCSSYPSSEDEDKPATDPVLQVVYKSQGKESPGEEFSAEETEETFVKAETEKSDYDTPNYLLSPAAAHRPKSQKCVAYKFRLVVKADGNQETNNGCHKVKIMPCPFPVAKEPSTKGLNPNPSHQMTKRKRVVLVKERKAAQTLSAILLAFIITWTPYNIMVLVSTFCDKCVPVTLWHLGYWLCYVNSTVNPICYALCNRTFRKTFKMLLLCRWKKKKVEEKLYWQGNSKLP
# Description: PDSP Primary Binding target: CHRM5 - Compounds are tested at 10 uM concentration, plate are incubated at room temperature in the dark for 90 minutes. Reaction are stopped by vacuum filtration onto 0.3% polyethyleneimine soaked filter mats using Filtermate harvester. Scintilation cocktail is then melted onto microwave-dried filters on a hot plate and the radio activity is counted in Microbia counter.
# [5] = molecular target: D(3) dopamine receptor (Homo sapiens) (UniProt P35462)
# Description: PDSP Primary Binding target: DRD3 - Compounds are tested at 10 uM concentration, plate are incubated at room temperature in the dark for 90 minutes. Reaction are stopped by vacuum filtration onto 0.3% polyethyleneimine soaked filter mats using Filtermate harvester. Scintilation cocktail is then melted onto microwave-dried filters on a hot plate and the radio activity is counted in Microbia counter.
# [6] = molecular target: T5, 5-hydroxytryptamine receptor 1A (Homo sapiens) (UniProt P08908)
# T5 sequence (whole entry): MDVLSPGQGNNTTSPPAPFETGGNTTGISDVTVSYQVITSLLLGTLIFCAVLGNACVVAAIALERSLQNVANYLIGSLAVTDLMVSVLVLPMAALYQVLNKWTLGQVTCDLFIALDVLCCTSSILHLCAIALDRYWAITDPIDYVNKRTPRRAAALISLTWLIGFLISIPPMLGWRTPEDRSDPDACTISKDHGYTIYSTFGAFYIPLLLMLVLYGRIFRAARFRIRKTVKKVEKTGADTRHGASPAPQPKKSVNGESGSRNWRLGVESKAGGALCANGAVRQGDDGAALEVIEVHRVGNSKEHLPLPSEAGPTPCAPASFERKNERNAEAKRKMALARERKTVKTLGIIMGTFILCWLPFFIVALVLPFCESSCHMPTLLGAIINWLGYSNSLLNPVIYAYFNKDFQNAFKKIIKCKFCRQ
# Description: PDSP Primary Binding target: HTR1A - Compounds are tested at 10 uM concentration, plate are incubated at room temperature in the dark for 90 minutes. Reaction are stopped by vacuum filtration onto 0.3% polyethyleneimine soaked filter mats using Filtermate harvester. Scintilation cocktail is then melted onto microwave-dried filters on a hot plate and the radio activity is counted in Microbia counter.
# [7] = molecular target: 5-hydroxytryptamine receptor 1B (Homo sapiens) (UniProt P28222)
# Description: PDSP Primary Binding target: HTR1B - Compounds are tested at 10 uM concentration, plate are incubated at room temperature in the dark for 90 minutes. Reaction are stopped by vacuum filtration onto 0.3% polyethyleneimine soaked filter mats using Filtermate harvester. Scintilation cocktail is then melted onto microwave-dried filters on a hot plate and the radio activity is counted in Microbia counter.
# [8] = molecular target: 5-hydroxytryptamine receptor 2B (Homo sapiens) (UniProt P41595)
# Description: PDSP Primary Binding target: HTR2B - Compounds are tested at 10 uM concentration, plate are incubated at room temperature in the dark for 90 minutes. Reaction are stopped by vacuum filtration onto 0.3% polyethyleneimine soaked filter mats using Filtermate harvester. Scintilation cocktail is then melted onto microwave-dried filters on a hot plate and the radio activity is counted in Microbia counter.
# [9] = molecular target: Kappa-type opioid receptor (Homo sapiens) (UniProt P41145)
# Description: PDSP Primary Binding target: OPRK1 - Compounds are tested at 10 uM concentration, plate are incubated at room temperature in the dark for 90 minutes. Reaction are stopped by vacuum filtration onto 0.3% polyethyleneimine soaked filter mats using Filtermate harvester. Scintilation cocktail is then melted onto microwave-dried filters on a hot plate and the radio activity is counted in Microbia counter.
# [10] = molecular target: Beta-1 adrenergic receptor (Homo sapiens) (UniProt P08588)
# Sequence of Beta-1 adrenergic receptor (Homo sapiens) (P08588 whole entry, looked up): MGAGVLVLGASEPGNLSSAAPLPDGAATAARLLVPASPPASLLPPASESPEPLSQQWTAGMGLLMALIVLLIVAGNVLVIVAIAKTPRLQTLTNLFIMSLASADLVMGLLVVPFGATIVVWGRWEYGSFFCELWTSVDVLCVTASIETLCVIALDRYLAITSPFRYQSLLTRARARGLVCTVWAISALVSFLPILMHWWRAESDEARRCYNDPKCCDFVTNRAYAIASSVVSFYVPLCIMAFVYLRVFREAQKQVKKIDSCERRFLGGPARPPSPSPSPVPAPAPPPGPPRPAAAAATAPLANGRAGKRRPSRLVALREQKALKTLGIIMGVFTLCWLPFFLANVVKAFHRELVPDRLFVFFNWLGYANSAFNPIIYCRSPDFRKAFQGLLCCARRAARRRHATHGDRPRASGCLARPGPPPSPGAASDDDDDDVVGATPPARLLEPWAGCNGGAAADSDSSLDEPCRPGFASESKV
# Description: PDSP Primary Binding target: ADRB1 - Compounds are tested at 10 uM concentration, plate are incubated at room temperature in the dark for 90 minutes. Reaction are stopped by vacuum filtration onto 0.3% polyethyleneimine soaked filter mats using Filtermate harvester. Scintilation cocktail is then melted onto microwave-dried filters on a hot plate and the radio activity is counted in Microbia counter.
# Sequence of Kappa-type opioid receptor (Homo sapiens) (P41145 whole entry): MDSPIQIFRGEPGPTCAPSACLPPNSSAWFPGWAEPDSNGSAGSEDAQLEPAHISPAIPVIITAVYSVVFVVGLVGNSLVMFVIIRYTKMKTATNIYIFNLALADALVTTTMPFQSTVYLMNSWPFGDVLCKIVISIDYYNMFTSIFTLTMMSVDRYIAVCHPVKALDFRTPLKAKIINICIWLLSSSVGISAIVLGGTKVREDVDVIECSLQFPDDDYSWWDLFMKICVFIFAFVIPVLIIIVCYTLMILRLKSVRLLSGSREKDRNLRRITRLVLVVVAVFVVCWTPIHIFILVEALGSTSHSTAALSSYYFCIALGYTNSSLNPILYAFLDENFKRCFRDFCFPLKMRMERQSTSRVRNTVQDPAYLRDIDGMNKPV
# Sequence of D(3) dopamine receptor (Homo sapiens) (P35462 whole entry): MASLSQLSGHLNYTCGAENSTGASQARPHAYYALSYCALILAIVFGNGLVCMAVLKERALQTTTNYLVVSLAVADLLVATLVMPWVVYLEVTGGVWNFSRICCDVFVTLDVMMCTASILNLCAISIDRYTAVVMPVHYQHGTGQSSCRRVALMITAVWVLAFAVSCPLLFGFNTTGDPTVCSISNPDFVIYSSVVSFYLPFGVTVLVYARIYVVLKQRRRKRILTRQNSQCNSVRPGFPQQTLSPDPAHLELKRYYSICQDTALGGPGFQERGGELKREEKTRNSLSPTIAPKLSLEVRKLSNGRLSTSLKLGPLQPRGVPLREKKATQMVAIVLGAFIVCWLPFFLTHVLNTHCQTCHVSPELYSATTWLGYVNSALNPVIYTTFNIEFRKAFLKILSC
# Sequence of 5-hydroxytryptamine receptor 2B (Homo sapiens) (P41595 whole entry): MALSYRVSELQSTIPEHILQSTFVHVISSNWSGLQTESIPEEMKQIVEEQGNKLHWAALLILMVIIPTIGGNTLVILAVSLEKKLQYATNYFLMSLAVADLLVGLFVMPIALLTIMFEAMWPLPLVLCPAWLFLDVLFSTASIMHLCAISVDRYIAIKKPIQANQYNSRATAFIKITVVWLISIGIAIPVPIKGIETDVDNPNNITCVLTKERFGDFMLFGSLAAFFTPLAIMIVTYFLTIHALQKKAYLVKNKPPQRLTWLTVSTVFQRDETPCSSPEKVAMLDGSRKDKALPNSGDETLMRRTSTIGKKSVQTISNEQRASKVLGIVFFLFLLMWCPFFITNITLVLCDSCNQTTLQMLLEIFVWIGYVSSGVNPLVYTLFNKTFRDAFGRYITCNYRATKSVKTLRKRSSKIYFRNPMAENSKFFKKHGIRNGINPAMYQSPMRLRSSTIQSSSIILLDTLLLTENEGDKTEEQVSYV
# Sequence of 5-hydroxytryptamine receptor 1B (Homo sapiens) (P28222 whole entry): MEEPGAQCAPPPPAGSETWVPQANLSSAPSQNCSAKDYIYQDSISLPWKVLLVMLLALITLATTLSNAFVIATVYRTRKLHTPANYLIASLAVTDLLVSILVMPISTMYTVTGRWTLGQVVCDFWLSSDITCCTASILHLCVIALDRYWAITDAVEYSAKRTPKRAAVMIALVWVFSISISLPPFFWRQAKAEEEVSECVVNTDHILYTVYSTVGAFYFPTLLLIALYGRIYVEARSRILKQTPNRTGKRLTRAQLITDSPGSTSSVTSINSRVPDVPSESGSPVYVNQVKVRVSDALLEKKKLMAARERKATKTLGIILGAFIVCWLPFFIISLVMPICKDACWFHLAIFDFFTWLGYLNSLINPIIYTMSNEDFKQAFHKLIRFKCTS
SMILES,inhibition [1] [%],inhibition [2] [%],inhibition [3] [%],inhibition [4] [%],inhibition [5] [%],inhibition [6] [%],inhibition [7] [%],inhibition [8] [%],inhibition [9] [%],inhibition [10] [%]
CCCCCNC(=N)N/N=C/c1c[nH]c2ccc(OC)cc12,53.9,94.1,38.2,8.93,70,101,96.3,100,35.1,–
C[C@H](NC[C@H](O)CP(=O)(O)CC1CCCCC1)c1ccc(Cl)c(Cl)c1,1.74,-5.96,40.4,16.6,19.5,-7.25,–,0.95,52.3,–
O=c1ccn([C@@H]2O[C@H](COP(=O)(O)OP(=O)(O)O)[C@@H](O)[C@H]2O)c(=O)[nH]1,-6.92,-6.08,15.9,-9.39,7.98,5.47,1.75,0.47,6.04,–
N#Cc1c(N)nc(SCC(N)=O)c(C#N)c1-c1ccc(OCC2CC2)cc1,16.2,–,-6.03,10.4,-6.34,2.75,–,12.7,89,–
O=C(Cc1ccccc1)Nc1nc2ccc(Cl)cc2c2nc(-c3ccco3)nn12,10.4,9.95,-4.43,-3.93,30.2,-8.72,–,-0.19,12.4,–
OC1(c2ccc(Cl)cc2)CCN(Cc2c[nH]c3ccccc23)CC1,66.1,30.4,–,70.8,88.8,2,19.3,73.8,3.1,38.7
N#Cc1cccc(C(=O)Nc2cc(-c3ccccc3)nn2-c2ccccc2)c1,4.85,–,20.9,2.45,30.4,14.8,23.3,2.3,16.2,–
CCOC(=O)c1c(C)[nH]c2ccc3c(c12)CN1CCc2cc(OC)ccc2C1O3 (stereo unspecified),41.3,95,22.6,2.39,44.2,–,54,67.6,57.4,–
CCCCC#Cc1nc(NC)c2ncn([C@@H]3O[C@H](CO)[C@@H](O)[C@H]3O)c2n1,-3.3,-4.88,22.8,20,32.7,3.96,-7.26,-4.41,8.14,–
Cc1nc(C(=O)N2CCC[C@H]2Cc2nnc(-c3ccccc3)o2)c(-c2ccccc2F)s1,1.08,-1.4,71.2,29.8,45,3.86,–,92.6,57.7,–
O=C(c1cc2c(cc1F)OC(c1ccc(F)cc1)(c1ccc(Cl)cc1Cl)O2)N1CCOCC1 (stereo unspecified),14.6,38.9,–,-6.56,27.4,5.52,27.6,85.6,71.4,8.99
Cc1cc(NC(=O)Nc2ccc(N(C)C)cc2)c2cc(F)cc(F)c2n1,3.42,9.7,52.8,39.2,34.5,–,–,73.3,22.3,–
O=C(O)CC/C=C\C[C@@H]1CO[C@H](c2ccccc2Cl)O[C@@H]1c1ccccc1O,-9.2,-7.17,-3.76,–,40,16.9,–,–,5.7,–
CCCCCCCCCCCCCCCCOC[C@H](COP(=O)([O-])OCC[N+](C)(C)C)OC(C)=O,34.5,3.24,-4.25,–,72.5,2.85,13.9,–,11.9,–
O=C(Nc1ccc(Cl)cc1)Nc1cccc(-c2cccc(N3CCCC3)n2)c1,1.27,-1.24,12.7,-5.29,48.5,28.2,–,10.6,7.04,–
CN(C(=O)Cc1ccc(Cl)c(Cl)c1)C(CN1CCCC1)c1cccc(OCC(=O)O)c1 (stereo unspecified),-0.83,3.8,–,59.6,3.88,24.9,11.1,14.7,100,20.5
CCCCN(CCCC)C(=O)CN1C[C@@H](c2ccc3c(c2)OCO3)[C@H](C(=O)O)[C@H]1c1ccc(OC)cc1,11.4,-5.48,–,30.2,28.4,-4.59,-0.63,-9.25,27.6,-6.31
COc1ccccc1CN[C@H]1C2CCN(CC2)[C@H]1C(c1ccccc1)c1ccccc1,-7.95,1.59,–,56.2,43,-1.15,8.03,0.68,49.1,17
CCc1cc(C(C)=O)c(O)cc1OCCCCCC(C)(C)c1nn[nH]n1,8.06,12,–,47.9,46.8,-8.57,14.7,64.2,16.9,18.3
